Results from ChEMBL document CHEMBL3046424, “Growth inhibitory effects on fall armyworm Spodoptera frugiperda of some limonoids isolated from Cedrela spp. (Meliaceae)” (2000).
In brackets after ≈: the same amount, converted by molar mass.

Assays:
Type in all cases: functional
[1] = system: Spodoptera frugiperda; test: Insecticidal activity against Spodoptera frugiperda (fall armyworm) assessed as mean emergence days at 25 ug/ml in artificial diet (reference value: 33 days)
[2] = system: Spodoptera frugiperda; test: Insecticidal activity against Spodoptera frugiperda (fall armyworm) assessed as mean time to pupation at 5 ug/ml in artificial diet (reference value: 22 days)
[3] = system: Spodoptera frugiperda; test: Insecticidal activity against Spodoptera frugiperda (fall armyworm) assessed as mean emergence days at 52 ug/ml in artificial diet (reference value: 33 days)
[4] = system: Spodoptera frugiperda; test: Insecticidal activity against Spodoptera frugiperda (fall armyworm) assessed as mean weight gain at 15 ug/ml in artificial diet measured after 7 days (reference value: 75.5 +/- 8.24 mg)
[5] = system: Spodoptera frugiperda; test: Insecticidal activity against Spodoptera frugiperda (fall armyworm) assessed as mean length at 5 ug/ml in artificial diet measured after 7 days (reference value: 28 +/- 4.1 mg)
[6] = system: Spodoptera frugiperda; test: Insecticidal activity against Spodoptera frugiperda (fall armyworm) assessed as mean length at 10 ug/ml in artificial diet measured after 7 days (reference value: 28 +/- 4.1 mg)
[7] = system: Spodoptera frugiperda; test: Insecticidal activity against Spodoptera frugiperda (fall armyworm) assessed as mean weight gain at 10 ug/ml in artificial diet measured after 7 days (reference value: 469.5 +/- 6.59 mg)
[8] = system: Spodoptera frugiperda; test: Insecticidal activity against Spodoptera frugiperda (fall armyworm) assessed as mean length at 10 ug/ml in artificial diet measured after 7 days (reference value: 0.95 +/- 0.2 cm)
[9] = system: Spodoptera frugiperda; test: Insecticidal activity against Spodoptera frugiperda (fall armyworm) assessed as mean weight of pupae at 5 ug/ml in artificial diet (reference value: 281.5 +/- 10.3 mg)
[10] = system: Spodoptera frugiperda; test: Insecticidal activity against Spodoptera frugiperda (fall armyworm) assessed as mean time to pupation at 52 ug/ml in artificial diet (reference value: 22 days)
[11] = system: Spodoptera frugiperda; test: Insecticidal activity against Spodoptera frugiperda (fall armyworm) assessed as mean weight gain at 25 ug/ml in artificial diet measured after 7 days (reference value: 469.5 +/- 6.59 mg)
[12] = system: Spodoptera frugiperda; test: Insecticidal activity against Spodoptera frugiperda (fall armyworm) assessed as mean weight gain at 5 ug/ml in artificial diet measured after 7 days (reference value: 469.5 +/- 6.59 mg)
[13] = system: Spodoptera frugiperda; test: Insecticidal activity against Spodoptera frugiperda (fall armyworm) assessed as mean weight of pupae at 25 ug/ml in artificial diet (reference value: 281.5 +/- 10.3 mg)
[14] = system: Spodoptera frugiperda; test: Insecticidal activity against Spodoptera frugiperda (fall armyworm) assessed as mean weight gain at 39 ug/ml in artificial diet measured after 7 days (reference value: 75.5 +/- 8.24 mg)
[15] = system: Spodoptera frugiperda; test: Insecticidal activity against Spodoptera frugiperda (fall armyworm) assessed as mean length at 15 ug/ml in artificial diet measured after 7 days (reference value: […])
[16] = system: Spodoptera frugiperda; test: Insecticidal activity against Spodoptera frugiperda (fall armyworm) assessed as mean pupation at 52 ug/ml in artificial diet (reference value: 87.5 %)
[17] = system: Spodoptera frugiperda; test: Insecticidal activity against Spodoptera frugiperda (fall armyworm) assessed as mean weight gain at 5 ug/ml in artificial diet measured after 7 days (reference value: 75.5 +/- 8.24 mg)
[18] = system: Spodoptera frugiperda; test: Insecticidal activity against Spodoptera frugiperda (fall armyworm) assessed as mortality at 5 ug/ml in artificial diet measured after 7 days (reference value: 8.33%); conditions: 168 h
[19] = system: Spodoptera frugiperda; test: Insecticidal activity against Spodoptera frugiperda (fall armyworm) assessed as mean weight gain at 25 ug/ml in artificial diet measured after 7 days (reference value: 75.5 +/- 8.24 mg)
[20] = system: Spodoptera frugiperda; test: Insecticidal activity against Spodoptera frugiperda (fall armyworm) assessed as mean length at 15 ug/ml in artificial diet measured after 7 days (reference value: 0.95 +/- 0.2 cm)
[21] = system: Spodoptera frugiperda; test: Insecticidal activity against Spodoptera frugiperda (fall armyworm) assessed as mean weight of pupae at 52 ug/ml in artificial diet (reference value: 281.5 +/- 10.3 mg)
[22] = system: Spodoptera frugiperda; test: Insecticidal activity against Spodoptera frugiperda (fall armyworm) assessed as mean time to pupation at 25 ug/ml in artificial diet (reference value: 22 days)
[23] = system: Spodoptera frugiperda; test: Insecticidal activity against Spodoptera frugiperda (fall armyworm) assessed as mean weight gain at 52 ug/ml in artificial diet measured after 7 days (reference value: 469.5 +/- 6.59 mg)
[24] = system: Spodoptera frugiperda; test: Insecticidal activity against Spodoptera frugiperda (fall armyworm) assessed as mean length at 52 ug/ml in artificial diet measured after 7 days (reference value: 0.95 +/- 0.2 cm)
[25] = system: Spodoptera frugiperda; test: Insecticidal activity against Spodoptera frugiperda (fall armyworm) assessed as mean emergence at 52 ug/ml in artificial diet (reference value: 83.3 %)
[26] = system: Spodoptera frugiperda; test: Insecticidal activity against Spodoptera frugiperda (fall armyworm) assessed as mean weight gain at 10 ug/ml in artificial diet measured after 7 days (reference value: 75.5 +/- 8.24 mg)
[27] = system: Spodoptera frugiperda; test: Insecticidal activity against Spodoptera frugiperda (fall armyworm) assessed as mean length at 25 ug/ml in artificial diet measured after 7 days (reference value: 0.95 +/- 0.2 cm)
[28] = system: Spodoptera frugiperda; test: Insecticidal activity against Spodoptera frugiperda (fall armyworm) assessed as mean pupation at 5 ug/ml in artificial diet (reference value: 87.5 %)
[29] = system: Spodoptera frugiperda; test: Insecticidal activity against Spodoptera frugiperda (fall armyworm) assessed as mean length at 5 ug/ml in artificial diet measured after 7 days (reference value: 0.95 +/- 0.2 cm)
[30] = system: Spodoptera frugiperda; test: Insecticidal activity against Spodoptera frugiperda (fall armyworm) assessed as mean weight gain at 52 ug/ml in artificial diet measured after 7 days (reference value: 75.5 +/- 8.24 mg)
[31] = system: Spodoptera frugiperda; test: Insecticidal activity against Spodoptera frugiperda (fall armyworm) assessed as mean length at 25 ug/ml in artificial diet measured after 7 days (reference value: 28 +/- 4.1 mg)
[32] = system: Spodoptera frugiperda; test: Insecticidal activity against Spodoptera frugiperda (fall armyworm) assessed as mean pupation at 25 ug/ml in artificial diet (reference value: 87.5 %)
[33] = system: Spodoptera frugiperda; test: Insecticidal activity against Spodoptera frugiperda (fall armyworm) assessed as mortality at 10 ug/ml in artificial diet measured after 7 days (reference value: 8.33%); conditions: 168 h
[34] = system: Spodoptera frugiperda; test: Insecticidal activity against Spodoptera frugiperda (fall armyworm) assessed as mean emergence at 5 ug/ml in artificial diet (reference value: 83.3 %)
[35] = system: Spodoptera frugiperda; test: Insecticidal activity against Spodoptera frugiperda (fall armyworm) assessed as mean emergence days at 5 ug/ml in artificial diet (reference value: 33 days)
[36] = system: Spodoptera frugiperda; test: Insecticidal activity against Spodoptera frugiperda (fall armyworm) assessed as mortality measured after 7 days; conditions: 168 h
[37] = system: Spodoptera frugiperda; test: Insecticidal activity against Spodoptera frugiperda (fall armyworm) assessed as mortality at 25 ug/ml in artificial diet measured after 7 days (reference value: 8.33%); conditions: 168 h
[38] = system: Spodoptera frugiperda; test: Insecticidal activity against Spodoptera frugiperda (fall armyworm) assessed as mean weight gain at 39 ug/ml in artificial diet measured after 7 days (reference value: 469.5 +/- 6.59 mg)
[39] = system: Spodoptera frugiperda; test: Insecticidal activity against Spodoptera frugiperda (fall armyworm) assessed as mortality at 52 ug/ml in artificial diet measured after 7 days (reference value: 8.33%); conditions: 168 h
[40] = system: Spodoptera frugiperda; test: Insecticidal activity against Spodoptera frugiperda (fall armyworm) assessed as mortality at 39 ug/ml in artificial diet measured after 7 days (reference value: 8.33%); conditions: 168 h
[41] = system: Spodoptera frugiperda; test: Insecticidal activity against Spodoptera frugiperda (fall armyworm) assessed as mean length at 39 ug/ml in artificial diet measured after 7 days (reference value: 0.95 +/- 0.2 cm)
[42] = system: Spodoptera frugiperda; test: Insecticidal activity against Spodoptera frugiperda (fall armyworm) assessed as mortality at 15 ug/ml in artificial diet measured after 7 days (reference value: 8.33%); conditions: 168 h
[43] = system: Spodoptera frugiperda; test: Insecticidal activity against Spodoptera frugiperda (fall armyworm) assessed as mean emergence at 25 ug/ml in artificial diet (reference value: 83.3 %)
[44] = system: Spodoptera frugiperda; test: Insecticidal activity against Spodoptera frugiperda (fall armyworm) assessed as mean length at 52 ug/ml in artificial diet measured after 7 days (reference value: 28 +/- 4.1 mg)
[45] = system: Spodoptera frugiperda; test: Insecticidal activity against Spodoptera frugiperda (fall armyworm) assessed as mean length at 39 ug/ml in artificial diet measured after 7 days (reference value: 28 +/- 4.1 mg)
[46] = system: Spodoptera frugiperda; test: Insecticidal activity against Spodoptera frugiperda (fall armyworm) assessed as mean weight gain at 15 ug/ml in artificial diet measured after 7 days (reference value: 469.5 +/- 6.59 mg)

## CC(=O)O[C@@H]1C[C@H]2C(C)(C)C(=O)C=C[C@]2(C)[C@H]2CC[C@@]3(C)[C@H](c4ccoc4)OC(=O)[C@H]4O[C@]43[C@@]21C [GEDUNIN]
[1]
  Time: 35 days
[2]
  Time: 22 days
[3]
  Time: 36 days
[4]
  Activity: 3.6 mg
[5]
  Activity: 2.6 mm
[6]
  Activity: 2.9 mm
[7]
  Activity: 4.95 mg
[8]
  Activity: 0.4 cm
[9]
  Activity: 147.9 mg
[10]
  Time: 24 days
[11]
  Activity: 3.45 mg
[12]
  Activity: 16.12 mg
[13]
  Activity: 122.4 mg
[14]
  Activity: 2.3 mg
[15]
  Activity: 2.6 mm
[16]
  Activity: 4.17%
[17]
  Activity: 6.12 mg
[18]
  mortality at 5 µg/mL: 25%
[19]
  Activity: 3.4 mg
[20]
  Activity: 0.35 cm
[21]
  Activity: 52 mg
[22]
  Time: 23 days
[23]
  Activity: 2.2 mg
[24]
  Activity: 0.2 cm
[25]
  Activity: 4.17%
[26]
  Activity: 4.9 mg
[27]
  Activity: 0.3 cm
[28]
  Activity: 20.8%
[29]
  Activity: 0.5 cm
[30]
  Activity: 1.9 mg
[31]
  Activity: 2.1 mm
[32]
  Activity: 16.7%
[33]
  mortality at 10 µg/mL: 33.3%
[34]
  Activity: 17.9%
[35]
  Time: 33 days
[36]
  LC50: 39 µg/mL (≈ 80.8 µM)
[37]
  mortality at 25 µg/mL: 38.3%
[38]
  Activity: 2.8 mg
[39]
  mortality at 52 µg/mL: 70.8%
[40]
  mortality at 39 µg/mL: 48.3%
[41]
  Activity: 0.25 cm
[42]
  mortality at 15 µg/mL: 33.3%
[43]
  Activity: 16.7%
[44]
  Activity: 2.1 mm
[45]
  Activity: 2 mm
[46]
  Activity: 3.61 mg

## CC(=O)O[C@@H]1C[C@H](O)[C@@]23CO[C@@H](O)[C@]1(C)[C@@H]2C[C@@H](O)[C@]1(C)[C@@H]3C(=O)[C@H](OC(C)=O)[C@@]2(C)[C@H](c3ccoc3)C[C@H]3O[C@]321 [TOOSENDANIN]
[1]
  Time: 36 days
[2]
  Time: 23.5 days
[5]
  Activity: 7 mm
[9]
  Activity: 95 mg
[10]
  Time: 24 days
[11]
  Activity: 17 mg
[12]
  Activity: 21.5 mg
[13]
  Activity: 45.1 mg
[16]
  Activity: 4.17%
[17]
  Activity: 5.1 mg
[18]
  mortality at 5 µg/mL: 40%
[19]
  Activity: 2.3 mg
[21]
  Activity: 38 mg
[22]
  Time: 24 days
[23]
  Activity: 11.2 mg
[24]
  Activity: 0.57 cm
[25]
  Activity: 0%
[27]
  Activity: 0.77 cm
[28]
  Activity: 17.9%
[29]
  Activity: 0.98 cm
[30]
  Activity: 1 mg
[31]
  Activity: 6.1 mm
[32]
  Activity: 4.17%
[34]
  Activity: 16.7%
[35]
  Time: 36 days
[36]
  LC50: 7 µg/mL (≈ 12.2 µM)
[37]
  mortality at 25 µg/mL: 70%
[39]
  mortality at 52 µg/mL: 89%
[43]
  Activity: 4.17%
[44]
  Activity: 2.8 mm
